Source: PubChem BioAssay (NCI)
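GI50 = concentration required for 50% inhibition of growth. At the TGI there is no net growth.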

Assays:
Assay in all cases: DTP human tumour cell line panel, 384-well format
[1] = system: 786-0 renal
[2] = system: A498 renal
[3] = system: A549 NSCLC
[4] = system: ACHN renal
[5] = system: BT-549 breast
[6] = system: COLO 205 colon
[7] = system: DU-145 prostate
[8] = system: EKVX NSCLC
[9] = system: HCC-2998 colon
[10] = system: HCT-116 colon
[11] = system: HCT-15 colon
[12] = system: HL-60(TB) leukemia
[13] = system: HOP-92 NSCLC
[14] = system: HS 578T breast
[15] = system: IGROV1 ovarian
[16] = system: K-562 leukemia
[17] = system: KM12 colon
[18] = system: LOX IMVI melanoma
[19] = system: M14 melanoma
[20] = system: MALME-3M melanoma
[21] = system: MDA-MB-231 breast
[22] = system: MDA-MB-435 melanoma
[23] = system: MDA-MB-468 breast
[24] = system: NCI-H23 lung
[25] = system: NCI-H322M lung
[26] = system: NCI-H460 NSCLC
[27] = system: NCI/ADR-RES ovarian
[28] = system: OVCAR-3 ovarian
[29] = system: OVCAR-4 ovarian
[30] = system: OVCAR-5 ovarian
[31] = system: OVCAR-8 ovarian
[32] = system: RPMI-8226 leukemia
[33] = system: RXF 393 renal
[34] = system: SF-268 CNS
[35] = system: SF-539 CNS
[36] = system: SK-MEL-28 melanoma
[37] = system: SK-MEL-5 melanoma
[38] = system: SK-OV-3 ovarian
[39] = system: SNB-19 CNS
[40] = system: SR leukemia
[41] = system: SW-620 colon
[42] = system: T-47D breast
[43] = system: TK-10 renal
[44] = system: U251 glioblastoma
[45] = system: UACC-257 melanoma
[46] = system: UACC-62 melanoma
[47] = system: UO-31 renal

## O=C(c1cc(Cc2n[nH]c(=O)c3ccccc23)ccc1F)N1CCN(C(=O)C2CC2)CC1
[1]
  GI50: > 100 µM
  TGI: > 100 µM
[2]
  GI50: > 100 µM
  TGI: > 100 µM
[3]
  GI50: 44.9 µM
  TGI: > 100 µM
[4]
  GI50: > 81.8 µM
  TGI: > 100 µM
[5]
  GI50: 17.2 µM
  TGI: > 75.8 µM
[6]
  GI50: > 77 µM
  TGI: > 100 µM
[7]
  GI50: 53.5 µM
  TGI: > 100 µM
[8]
  GI50: 97.7 µM
  TGI: > 100 µM
[9]
  GI50: > 29.2 µM
  TGI: > 100 µM
[10]
  GI50: 8.27 µM
  TGI: > 100 µM
[11]
  GI50: > 100 µM
  TGI: > 100 µM
[12]
  GI50: 21.2 µM
  TGI: > 100 µM
[13]
  GI50: 57.3 µM
  TGI: > 100 µM
[14]
  GI50: 25.9 µM
  TGI: > 100 µM
[15]
  GI50: > 62.7 µM
  TGI: > 100 µM
[16]
  GI50: 33.5 µM
  TGI: > 100 µM
[17]
  GI50: > 100 µM
  TGI: > 100 µM
[18]
  GI50: 23 µM
  TGI: > 100 µM
[19]
  GI50: > 91.5 µM
  TGI: > 100 µM
[20]
  GI50: > 100 µM
  TGI: > 100 µM
[21]
  GI50: > 61.1 µM
  TGI: > 100 µM
[22]
  GI50: > 100 µM
  TGI: > 100 µM
[23]
  GI50: 3.76 µM
  TGI: 16.7 µM
[24]
  GI50: 16.3 µM
  TGI: > 100 µM
[25]
  GI50: > 100 µM
  TGI: > 100 µM
[26]
  GI50: 5.78 µM
  TGI: > 100 µM
[27]
  GI50: > 100 µM
  TGI: > 100 µM
[28]
  GI50: 60.5 µM
  TGI: > 100 µM
[29]
  GI50: > 80.3 µM
  TGI: > 100 µM
[30]
  GI50: > 100 µM
  TGI: > 100 µM
[31]
  GI50: 22 µM
  TGI: > 100 µM
[32]
  GI50: 12.7 µM
  TGI: > 100 µM
[33]
  GI50: > 37.6 µM
  TGI: > 79.6 µM
[34]
  GI50: 24.9 µM
  TGI: > 90.3 µM
[35]
  GI50: 11.8 µM
  TGI: > 100 µM
[36]
  GI50: > 100 µM
  TGI: > 100 µM
[37]
  GI50: 35 µM
  TGI: > 73.1 µM
[38]
  GI50: > 55.5 µM
  TGI: > 100 µM
[39]
  GI50: 99.2 µM
  TGI: > 100 µM
[40]
  GI50: 1.37 µM
  TGI: 3.38 µM
[41]
  GI50: > 35 µM
  TGI: > 100 µM
[42]
  GI50: 34.8 µM
  TGI: > 100 µM
[43]
  GI50: > 100 µM
  TGI: > 100 µM
[44]
  GI50: 27.3 µM
  TGI: > 100 µM
[45]
  GI50: > 100 µM
  TGI: > 100 µM
[46]
  GI50: > 95.7 µM
  TGI: > 100 µM
[47]
  GI50: > 92.7 µM
  TGI: > 100 µM
